System: NHBE cells
Experiment: Biolog metabolic array: substrate use by NHBE cells with or without CA09 infection
Type: cell-based, human
Conditions: for Substrate use, 590 nm absorbance normalized to zero hour, 1 hr: Biolog PMM2, 1 hr; for Substrate use, 590 nm absorbance normalized to zero hour, 5 hr: Biolog PMM2, 5 hr; for Substrate use, 590 nm absorbance normalized to zero hour, 7 hr: Biolog PMM2, 7 hr; for Substrate use, 590 nm absorbance normalized to zero hour, 0 hr: Biolog PMM2, 0 hr
[1] = Control (uninfected) NHBE cells
[2] = Virus (CA09-infected, MOI 1) NHBE cells
[3] = Virus: CA09-infected NHBE cells, MOI 1, Biolog PMM2
[4] = Virus (CA09, MOI 1) infected NHBE cells

OC[C@@H](O)[C@@H](O)[C@H](O)[C@@H](O)CO [D-Sorbitol]
590 nm absorbance normalized to zero hour (substrate use), 1 hr [1]: 2.10 | 590 nm absorbance normalized to zero hour (substrate use), 2 hr [1]: 2.97 | 590 nm absorbance normalized to zero hour (substrate use), 3 hr [1]: 3.57 | 590 nm absorbance normalized to zero hour (substrate use), 4 hr [1]: 3.84 | 590 nm absorbance normalized to zero hour (substrate use), 6 hr [1]: 4.81 | 590 nm absorbance normalized to zero hour (substrate use), 8 hr [1]: 5.56 | 590 nm absorbance normalized to zero hour (substrate use), 9 hr [1]: 6.08 | 590 nm absorbance normalized to zero hour (substrate use), 10 hr [1]: 6.47 | 590 nm absorbance normalized to zero hour (substrate use), 11 hr [1]: 6.92 | Substrate use, 590 nm absorbance normalized to zero hour, 1 hr [1]: 2.10 | Substrate use, 590 nm absorbance normalized to zero hour, 5 hr [1]: 4.59 | Substrate use, 590 nm absorbance normalized to zero hour, 7 hr [1]: 5.29 | 590 nm absorbance normalized to zero hour (substrate use), 1 hr [2]: 1.80 | 590 nm absorbance normalized to zero hour (substrate use), 2 hr [2]: 2.63 | 590 nm absorbance normalized to zero hour (substrate use), 3 hr [2]: 3.10 | 590 nm absorbance normalized to zero hour (substrate use), 4 hr [2]: 3.35 | 590 nm absorbance normalized to zero hour (substrate use), 5 hr [2]: 4.00 | 590 nm absorbance normalized to zero hour (substrate use), 6 hr [2]: 4.37 | 590 nm absorbance normalized to zero hour (substrate use), 7 hr [2]: 4.63 | 590 nm absorbance normalized to zero hour (substrate use), 8 hr [2]: 4.94 | 590 nm absorbance normalized to zero hour (substrate use), 9 hr [2]: 5.39 | 590 nm absorbance normalized to zero hour (substrate use), 10 hr [2]: 5.64 | 590 nm absorbance normalized to zero hour (substrate use), 11 hr [2]: 6.18 | 590 nm absorbance normalized to zero hour (substrate use), 1 hr [3]: 1.80 | 590 nm absorbance normalized to zero hour (substrate use), 2 hr [3]: 2.63 | 590 nm absorbance normalized to zero hour (substrate use), 3 hr [3]: 3.10 | 590 nm absorbance normalized to zero hour (substrate use), 4 hr [3]: 3.35 | 590 nm absorbance normalized to zero hour (substrate use), 5 hr [3]: 4.00 | 590 nm absorbance normalized to zero hour (substrate use), 6 hr [3]: 4.37 | 590 nm absorbance normalized to zero hour (substrate use), 7 hr [3]: 4.63 | 590 nm absorbance normalized to zero hour (substrate use), 8 hr [3]: 4.94 | 590 nm absorbance normalized to zero hour (substrate use), 9 hr [3]: 5.39 | 590 nm absorbance normalized to zero hour (substrate use), 10 hr [3]: 5.64 | 590 nm absorbance normalized to zero hour (substrate use), 11 hr [3]: 6.18

OCC1OC(OC2C(CO)OC(OC3C(CO)OC(O)C(O)C3O)C(O)C2O)C(O)C(O)C1O (stereo not shown) [Malto-triose]
590 nm absorbance normalized to zero hour (substrate use), 0 hr [1]: 1.00 | 590 nm absorbance normalized to zero hour (substrate use), 1 hr [1]: 2.27 | 590 nm absorbance normalized to zero hour (substrate use), 2 hr [1]: 3.36 | 590 nm absorbance normalized to zero hour (substrate use), 3 hr [1]: 4.16 | 590 nm absorbance normalized to zero hour (substrate use), 4 hr [1]: 4.58 | 590 nm absorbance normalized to zero hour (substrate use), 6 hr [1]: 5.62 | 590 nm absorbance normalized to zero hour (substrate use), 8 hr [1]: 7.97 | 590 nm absorbance normalized to zero hour (substrate use), 9 hr [1]: 7.32 | 590 nm absorbance normalized to zero hour (substrate use), 10 hr [1]: 6.88 | 590 nm absorbance normalized to zero hour (substrate use), 11 hr [1]: 8.46 | Substrate use, 590 nm absorbance normalized to zero hour, 0 hr [1]: 1.00 | Substrate use, 590 nm absorbance normalized to zero hour, 1 hr [1]: 2.27 | Substrate use, 590 nm absorbance normalized to zero hour, 5 hr [1]: 6.09 | Substrate use, 590 nm absorbance normalized to zero hour, 7 hr [1]: 7.39 | 590 nm absorbance normalized to zero hour (substrate use), 0 hr [2]: 1.00 | 590 nm absorbance normalized to zero hour (substrate use), 1 hr [2]: 2.01 | 590 nm absorbance normalized to zero hour (substrate use), 2 hr [2]: 3.05 | 590 nm absorbance normalized to zero hour (substrate use), 3 hr [2]: 3.70 | 590 nm absorbance normalized to zero hour (substrate use), 4 hr [2]: 4.08 | 590 nm absorbance normalized to zero hour (substrate use), 5 hr [2]: 5.20 | 590 nm absorbance normalized to zero hour (substrate use), 6 hr [2]: 5.81 | 590 nm absorbance normalized to zero hour (substrate use), 7 hr [2]: 6.29 | 590 nm absorbance normalized to zero hour (substrate use), 8 hr [2]: 6.78 | 590 nm absorbance normalized to zero hour (substrate use), 9 hr [2]: 7.44 | 590 nm absorbance normalized to zero hour (substrate use), 10 hr [2]: 6.04 | 590 nm absorbance normalized to zero hour (substrate use), 11 hr [2]: 6.50 | 590 nm absorbance normalized to zero hour (substrate use), 0 hr [3]: 1.00 | 590 nm absorbance normalized to zero hour (substrate use), 1 hr [3]: 2.01 | 590 nm absorbance normalized to zero hour (substrate use), 2 hr [3]: 3.05 | 590 nm absorbance normalized to zero hour (substrate use), 3 hr [3]: 3.70 | 590 nm absorbance normalized to zero hour (substrate use), 4 hr [3]: 4.08 | 590 nm absorbance normalized to zero hour (substrate use), 5 hr [3]: 5.20 | 590 nm absorbance normalized to zero hour (substrate use), 6 hr [3]: 5.81 | 590 nm absorbance normalized to zero hour (substrate use), 7 hr [3]: 6.29 | 590 nm absorbance normalized to zero hour (substrate use), 8 hr [3]: 6.78 | 590 nm absorbance normalized to zero hour (substrate use), 9 hr [3]: 7.44 | 590 nm absorbance normalized to zero hour (substrate use), 10 hr [3]: 6.04 | 590 nm absorbance normalized to zero hour (substrate use), 11 hr [3]: 6.50

CC(=O)N[C@H]1[C@H]([C@H](O)[C@H](O)CO)OC(O)(C(=O)O)C[C@@H]1O (stereo partly shown) [n-acetyl-neuraminic acid]
590 nm absorbance normalized to zero hour (substrate use), 0 hr [1]: 1.00 | 590 nm absorbance normalized to zero hour (substrate use), 1 hr [1]: 0.19 | 590 nm absorbance normalized to zero hour (substrate use), 2 hr [1]: 0.21 | 590 nm absorbance normalized to zero hour (substrate use), 3 hr [1]: 0.19 | 590 nm absorbance normalized to zero hour (substrate use), 4 hr [1]: 0.20 | 590 nm absorbance normalized to zero hour (substrate use), 6 hr [1]: 0.36 | 590 nm absorbance normalized to zero hour (substrate use), 8 hr [1]: 0.27 | 590 nm absorbance normalized to zero hour (substrate use), 9 hr [1]: 0.29 | 590 nm absorbance normalized to zero hour (substrate use), 10 hr [1]: 0.32 | 590 nm absorbance normalized to zero hour (substrate use), 11 hr [1]: 0.25 | Substrate use, 590 nm absorbance normalized to zero hour, 0 hr [1]: 1.00 | Substrate use, 590 nm absorbance normalized to zero hour, 1 hr [1]: 0.19 | Substrate use, 590 nm absorbance normalized to zero hour, 5 hr [1]: 0.23 | Substrate use, 590 nm absorbance normalized to zero hour, 7 hr [1]: 0.26 | Substrate use, 590 nm absorbance normalized to zero hour, 0 hr [4]: 1.00 | Substrate use, 590 nm absorbance normalized to zero hour, 1 hr [4]: 4.77 | Substrate use, 590 nm absorbance normalized to zero hour, 5 hr [4]: 1.43 | Substrate use, 590 nm absorbance normalized to zero hour, 7 hr [4]: 1.58 | 590 nm absorbance normalized to zero hour (substrate use), 0 hr [2]: 1.00 | 590 nm absorbance normalized to zero hour (substrate use), 1 hr [2]: 4.77 | 590 nm absorbance normalized to zero hour (substrate use), 2 hr [2]: 3.35 | 590 nm absorbance normalized to zero hour (substrate use), 3 hr [2]: 3.95 | 590 nm absorbance normalized to zero hour (substrate use), 4 hr [2]: 3.57 | 590 nm absorbance normalized to zero hour (substrate use), 6 hr [2]: 2.71 | 590 nm absorbance normalized to zero hour (substrate use), 8 hr [2]: 1.60 | 590 nm absorbance normalized to zero hour (substrate use), 9 hr [2]: 1.61 | 590 nm absorbance normalized to zero hour (substrate use), 10 hr [2]: 1.82 | 590 nm absorbance normalized to zero hour (substrate use), 11 hr [2]: 2.21
